The values that follow come from ChEMBL document CHEMBL5291721, “A preclinical secondary pharmacology resource illuminates target-adverse drug reaction associations of marketed drugs” (Nat Commun, 2023).

Among the targets are Vasopressin V1a receptor (Homo sapiens, UniProt P37288); D(3) dopamine receptor (Homo sapiens, UniProt P35462); Adenosine receptor A2a (Homo sapiens, UniProt P29274); Melanocortin receptor 3 (Homo sapiens, UniProt P41968).
The target of test [1] is 5-hydroxytryptamine receptor 2B (Homo sapiens, UniProt P41595). The class given is functional, cell-based.
For test [2], the target named is T1, Type-1 angiotensin II receptor (Homo sapiens, UniProt P30556).
T1 sequence (P30556 whole entry): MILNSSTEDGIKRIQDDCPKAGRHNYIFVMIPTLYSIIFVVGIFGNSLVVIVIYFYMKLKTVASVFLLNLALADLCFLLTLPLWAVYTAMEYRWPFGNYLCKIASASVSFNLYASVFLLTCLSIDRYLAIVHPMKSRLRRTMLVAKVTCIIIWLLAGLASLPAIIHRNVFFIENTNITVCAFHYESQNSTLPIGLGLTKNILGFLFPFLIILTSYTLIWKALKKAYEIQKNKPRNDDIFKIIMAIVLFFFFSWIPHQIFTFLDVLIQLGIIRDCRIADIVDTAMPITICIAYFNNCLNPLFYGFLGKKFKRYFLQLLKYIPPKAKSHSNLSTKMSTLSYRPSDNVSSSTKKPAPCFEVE

Test [3] addresses Beta-1 adrenergic receptor (Homo sapiens, UniProt P08588). The class given is functional.
Test [4] addresses T2, 5-hydroxytryptamine receptor 1A (Homo sapiens, UniProt P08908).
T2 sequence (P08908 whole entry): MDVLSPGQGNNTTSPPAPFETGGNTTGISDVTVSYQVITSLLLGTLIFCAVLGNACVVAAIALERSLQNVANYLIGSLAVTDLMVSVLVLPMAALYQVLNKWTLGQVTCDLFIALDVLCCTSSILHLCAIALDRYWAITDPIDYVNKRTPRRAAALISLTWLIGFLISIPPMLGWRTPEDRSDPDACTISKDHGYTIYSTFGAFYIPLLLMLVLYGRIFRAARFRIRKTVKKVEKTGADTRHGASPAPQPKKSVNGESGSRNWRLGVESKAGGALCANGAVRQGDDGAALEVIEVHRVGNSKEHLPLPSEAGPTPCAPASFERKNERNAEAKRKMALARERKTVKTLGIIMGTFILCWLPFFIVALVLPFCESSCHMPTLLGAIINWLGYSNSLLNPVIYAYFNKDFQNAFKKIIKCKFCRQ
The class given is functional, cell-based.

The target in test [5] is T3, Equilibrative nucleoside transporter 1 (Homo sapiens, UniProt Q99808).
T3 sequence (Q99808 whole entry): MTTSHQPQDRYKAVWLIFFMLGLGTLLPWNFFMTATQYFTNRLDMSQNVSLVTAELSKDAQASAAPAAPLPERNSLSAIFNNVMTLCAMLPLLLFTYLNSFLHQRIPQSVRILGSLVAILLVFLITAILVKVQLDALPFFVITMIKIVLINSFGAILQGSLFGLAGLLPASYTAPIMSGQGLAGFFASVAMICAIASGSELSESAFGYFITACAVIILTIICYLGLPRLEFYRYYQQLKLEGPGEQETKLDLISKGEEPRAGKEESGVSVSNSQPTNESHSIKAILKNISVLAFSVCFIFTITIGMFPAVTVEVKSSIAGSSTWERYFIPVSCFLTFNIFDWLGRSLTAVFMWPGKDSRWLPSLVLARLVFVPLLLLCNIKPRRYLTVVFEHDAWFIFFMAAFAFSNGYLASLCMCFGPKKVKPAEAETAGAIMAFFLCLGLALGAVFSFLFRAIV

The target in test [6] is T4, 5-hydroxytryptamine receptor 2C (Homo sapiens, UniProt P28335).
T4 sequence (P28335 whole entry): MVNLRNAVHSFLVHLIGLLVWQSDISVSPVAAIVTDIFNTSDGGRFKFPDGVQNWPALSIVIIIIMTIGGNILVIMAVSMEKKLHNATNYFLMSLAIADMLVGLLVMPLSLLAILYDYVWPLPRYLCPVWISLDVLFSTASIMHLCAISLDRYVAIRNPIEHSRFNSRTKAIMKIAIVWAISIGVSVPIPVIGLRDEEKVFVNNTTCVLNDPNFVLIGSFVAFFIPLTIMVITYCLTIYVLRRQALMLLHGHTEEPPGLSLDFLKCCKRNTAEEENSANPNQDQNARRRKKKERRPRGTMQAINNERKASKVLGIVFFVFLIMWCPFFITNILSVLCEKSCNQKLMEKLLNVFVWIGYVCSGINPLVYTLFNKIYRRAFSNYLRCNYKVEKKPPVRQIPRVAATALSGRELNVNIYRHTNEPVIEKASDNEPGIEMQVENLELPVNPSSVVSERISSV

Test [7] addresses Gamma-aminobutyric acid receptor subunit alpha-1 (Rattus norvegicus, UniProt P62813). Type of test: functional.
The target of test [8] is Sodium-dependent dopamine transporter (Homo sapiens, UniProt Q01959).
For test [9], the target named is Growth hormone secretagogue receptor type 1 (Homo sapiens, UniProt Q92847).
Another test has as its target Bile salt export pump (Homo sapiens, UniProt O95342). The class given is functional.
Test [10] deals with T5, Alpha-2C adrenergic receptor (Homo sapiens, UniProt P18825).
T5 sequence (P18825 whole entry): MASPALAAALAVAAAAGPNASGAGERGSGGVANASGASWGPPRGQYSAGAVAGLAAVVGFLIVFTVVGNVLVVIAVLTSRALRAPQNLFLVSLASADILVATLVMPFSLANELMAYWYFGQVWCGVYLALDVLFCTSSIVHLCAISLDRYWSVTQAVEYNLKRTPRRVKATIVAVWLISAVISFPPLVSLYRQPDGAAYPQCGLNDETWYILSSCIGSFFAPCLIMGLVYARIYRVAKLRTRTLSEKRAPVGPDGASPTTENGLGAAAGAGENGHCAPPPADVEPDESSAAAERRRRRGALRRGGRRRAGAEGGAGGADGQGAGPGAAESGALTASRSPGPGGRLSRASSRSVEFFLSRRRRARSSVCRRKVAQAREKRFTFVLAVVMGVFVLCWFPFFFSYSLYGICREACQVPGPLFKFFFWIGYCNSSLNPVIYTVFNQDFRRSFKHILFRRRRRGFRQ
Type of test: functional.

For orientation: AC50 means the concentration giving half of the maximal activity seen.

SMILES strings stand for the structures.
Note: assay procedure not described here.

Sequence of 5-hydroxytryptamine receptor 2B (P41595 whole entry): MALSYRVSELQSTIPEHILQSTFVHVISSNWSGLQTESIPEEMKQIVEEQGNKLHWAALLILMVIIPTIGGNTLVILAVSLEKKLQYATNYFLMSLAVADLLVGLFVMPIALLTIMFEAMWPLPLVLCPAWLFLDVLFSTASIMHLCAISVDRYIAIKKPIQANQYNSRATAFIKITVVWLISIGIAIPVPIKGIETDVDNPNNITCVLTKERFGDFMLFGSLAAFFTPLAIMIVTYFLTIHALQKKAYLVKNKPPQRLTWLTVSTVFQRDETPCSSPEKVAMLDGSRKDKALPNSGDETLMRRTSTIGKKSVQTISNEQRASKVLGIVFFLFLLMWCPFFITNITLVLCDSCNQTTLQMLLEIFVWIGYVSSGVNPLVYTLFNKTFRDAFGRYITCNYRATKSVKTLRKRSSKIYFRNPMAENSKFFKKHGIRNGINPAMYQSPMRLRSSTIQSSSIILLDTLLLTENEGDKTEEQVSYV
Sequence of Beta-1 adrenergic receptor (P08588 whole entry): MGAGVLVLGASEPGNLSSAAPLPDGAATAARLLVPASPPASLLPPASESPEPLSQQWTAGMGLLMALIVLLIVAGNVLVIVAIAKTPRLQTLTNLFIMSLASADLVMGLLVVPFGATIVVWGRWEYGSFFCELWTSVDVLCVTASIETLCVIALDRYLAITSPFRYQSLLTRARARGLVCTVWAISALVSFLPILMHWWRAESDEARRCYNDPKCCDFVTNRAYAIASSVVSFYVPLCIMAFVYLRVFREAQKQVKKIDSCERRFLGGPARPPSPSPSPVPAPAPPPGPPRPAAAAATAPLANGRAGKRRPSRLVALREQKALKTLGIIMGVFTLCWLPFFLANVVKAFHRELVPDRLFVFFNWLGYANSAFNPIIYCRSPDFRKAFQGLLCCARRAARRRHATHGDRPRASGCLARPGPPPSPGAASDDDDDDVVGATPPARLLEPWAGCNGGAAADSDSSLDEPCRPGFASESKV
Sequence of Adenosine receptor A2a (P29274 whole entry): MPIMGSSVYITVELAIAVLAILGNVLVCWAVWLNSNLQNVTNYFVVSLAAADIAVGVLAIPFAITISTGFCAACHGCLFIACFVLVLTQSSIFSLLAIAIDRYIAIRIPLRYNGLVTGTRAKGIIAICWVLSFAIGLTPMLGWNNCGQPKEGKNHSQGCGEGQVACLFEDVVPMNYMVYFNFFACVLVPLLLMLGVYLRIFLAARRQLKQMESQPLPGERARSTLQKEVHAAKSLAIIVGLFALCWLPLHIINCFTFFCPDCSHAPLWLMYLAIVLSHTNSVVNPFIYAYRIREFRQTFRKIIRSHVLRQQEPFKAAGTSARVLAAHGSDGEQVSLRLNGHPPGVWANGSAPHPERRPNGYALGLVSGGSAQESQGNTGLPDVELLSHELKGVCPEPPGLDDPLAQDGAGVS
Sequence of Bile salt export pump (O95342 whole entry): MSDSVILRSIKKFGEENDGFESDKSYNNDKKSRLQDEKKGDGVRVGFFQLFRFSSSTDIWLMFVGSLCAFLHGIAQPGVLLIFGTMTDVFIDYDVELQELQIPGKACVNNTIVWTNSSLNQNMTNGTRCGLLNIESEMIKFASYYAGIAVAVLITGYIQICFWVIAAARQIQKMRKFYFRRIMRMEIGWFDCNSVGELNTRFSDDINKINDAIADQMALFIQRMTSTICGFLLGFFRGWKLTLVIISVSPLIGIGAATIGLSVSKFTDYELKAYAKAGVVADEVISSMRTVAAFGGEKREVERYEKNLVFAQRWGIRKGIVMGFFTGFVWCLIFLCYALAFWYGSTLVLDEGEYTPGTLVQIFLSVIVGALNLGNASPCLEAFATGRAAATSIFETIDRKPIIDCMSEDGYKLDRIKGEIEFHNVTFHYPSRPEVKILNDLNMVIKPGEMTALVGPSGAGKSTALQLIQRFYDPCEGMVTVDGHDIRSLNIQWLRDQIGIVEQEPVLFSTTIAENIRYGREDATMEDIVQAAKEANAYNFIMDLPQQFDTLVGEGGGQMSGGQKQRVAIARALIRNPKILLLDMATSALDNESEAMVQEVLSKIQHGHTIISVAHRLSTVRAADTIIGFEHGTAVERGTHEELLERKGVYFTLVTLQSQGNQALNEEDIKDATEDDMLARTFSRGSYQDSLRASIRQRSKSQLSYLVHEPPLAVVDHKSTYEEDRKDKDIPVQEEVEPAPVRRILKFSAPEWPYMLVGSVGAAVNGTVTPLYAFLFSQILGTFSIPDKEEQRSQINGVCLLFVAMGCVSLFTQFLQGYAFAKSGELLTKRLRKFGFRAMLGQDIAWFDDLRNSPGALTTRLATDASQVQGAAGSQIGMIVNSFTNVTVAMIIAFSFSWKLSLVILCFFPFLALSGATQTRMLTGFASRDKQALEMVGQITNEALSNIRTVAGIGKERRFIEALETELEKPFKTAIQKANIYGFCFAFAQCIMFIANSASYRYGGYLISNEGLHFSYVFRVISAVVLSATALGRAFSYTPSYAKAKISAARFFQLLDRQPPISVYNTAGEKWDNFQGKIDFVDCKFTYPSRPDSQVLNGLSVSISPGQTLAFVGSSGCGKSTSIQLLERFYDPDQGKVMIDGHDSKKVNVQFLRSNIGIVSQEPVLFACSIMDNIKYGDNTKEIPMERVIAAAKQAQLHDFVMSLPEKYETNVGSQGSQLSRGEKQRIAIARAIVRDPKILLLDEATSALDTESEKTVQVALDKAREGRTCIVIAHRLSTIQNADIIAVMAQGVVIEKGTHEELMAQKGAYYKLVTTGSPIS
Sequence of Gamma-aminobutyric acid receptor subunit alpha-1 (P62813 whole entry): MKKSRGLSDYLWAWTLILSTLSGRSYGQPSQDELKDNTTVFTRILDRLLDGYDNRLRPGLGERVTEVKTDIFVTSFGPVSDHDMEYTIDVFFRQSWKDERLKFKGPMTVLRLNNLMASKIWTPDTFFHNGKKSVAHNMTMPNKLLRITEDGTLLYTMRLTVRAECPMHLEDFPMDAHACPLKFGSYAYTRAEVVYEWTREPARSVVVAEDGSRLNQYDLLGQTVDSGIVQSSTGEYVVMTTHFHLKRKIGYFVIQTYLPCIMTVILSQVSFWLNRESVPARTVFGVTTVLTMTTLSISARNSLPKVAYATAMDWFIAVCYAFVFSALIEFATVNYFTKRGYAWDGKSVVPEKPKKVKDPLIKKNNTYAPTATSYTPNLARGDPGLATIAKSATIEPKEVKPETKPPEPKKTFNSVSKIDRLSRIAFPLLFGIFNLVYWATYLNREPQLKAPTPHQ
Sequence of Sodium-dependent dopamine transporter (Q01959 whole entry): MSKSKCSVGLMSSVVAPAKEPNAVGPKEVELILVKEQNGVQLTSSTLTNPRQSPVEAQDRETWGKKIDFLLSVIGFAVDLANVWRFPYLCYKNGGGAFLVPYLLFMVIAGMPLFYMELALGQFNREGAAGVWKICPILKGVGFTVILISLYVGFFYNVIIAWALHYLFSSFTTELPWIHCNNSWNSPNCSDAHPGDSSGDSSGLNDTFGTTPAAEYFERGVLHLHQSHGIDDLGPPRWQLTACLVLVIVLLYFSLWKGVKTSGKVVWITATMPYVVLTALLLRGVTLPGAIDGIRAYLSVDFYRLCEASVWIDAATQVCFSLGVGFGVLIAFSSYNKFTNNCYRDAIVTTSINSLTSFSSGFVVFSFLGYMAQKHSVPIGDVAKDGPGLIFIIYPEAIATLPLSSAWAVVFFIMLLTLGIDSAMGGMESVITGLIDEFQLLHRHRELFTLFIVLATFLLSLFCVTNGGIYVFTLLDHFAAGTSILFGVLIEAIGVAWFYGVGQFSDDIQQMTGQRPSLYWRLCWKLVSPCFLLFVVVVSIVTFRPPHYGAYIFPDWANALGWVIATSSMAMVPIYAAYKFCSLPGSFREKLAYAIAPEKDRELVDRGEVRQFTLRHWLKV
Sequence of D(3) dopamine receptor (P35462 whole entry): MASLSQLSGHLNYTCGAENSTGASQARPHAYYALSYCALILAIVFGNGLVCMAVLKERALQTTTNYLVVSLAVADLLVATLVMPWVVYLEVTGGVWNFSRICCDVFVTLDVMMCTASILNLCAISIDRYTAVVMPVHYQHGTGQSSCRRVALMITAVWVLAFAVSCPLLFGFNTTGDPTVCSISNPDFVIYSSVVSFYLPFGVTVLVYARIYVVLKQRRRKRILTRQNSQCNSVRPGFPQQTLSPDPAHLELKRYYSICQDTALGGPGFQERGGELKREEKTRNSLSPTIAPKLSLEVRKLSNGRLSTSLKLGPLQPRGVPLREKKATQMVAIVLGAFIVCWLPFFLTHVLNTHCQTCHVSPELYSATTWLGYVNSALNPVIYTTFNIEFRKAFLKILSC
Sequence of Vasopressin V1a receptor (P37288 whole entry): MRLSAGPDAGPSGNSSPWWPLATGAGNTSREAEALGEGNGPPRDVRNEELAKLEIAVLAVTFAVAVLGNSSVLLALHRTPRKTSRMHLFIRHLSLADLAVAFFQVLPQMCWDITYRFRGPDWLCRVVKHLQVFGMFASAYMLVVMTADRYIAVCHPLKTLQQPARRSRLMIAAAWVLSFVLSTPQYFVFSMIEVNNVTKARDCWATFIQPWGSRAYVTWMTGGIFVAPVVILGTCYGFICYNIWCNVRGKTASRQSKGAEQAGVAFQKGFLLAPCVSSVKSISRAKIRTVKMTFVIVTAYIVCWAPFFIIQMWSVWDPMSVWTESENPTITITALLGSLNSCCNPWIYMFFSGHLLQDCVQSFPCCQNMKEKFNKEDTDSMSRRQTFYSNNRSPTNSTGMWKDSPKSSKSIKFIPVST
Sequence of Melanocortin receptor 3 (P41968 whole entry): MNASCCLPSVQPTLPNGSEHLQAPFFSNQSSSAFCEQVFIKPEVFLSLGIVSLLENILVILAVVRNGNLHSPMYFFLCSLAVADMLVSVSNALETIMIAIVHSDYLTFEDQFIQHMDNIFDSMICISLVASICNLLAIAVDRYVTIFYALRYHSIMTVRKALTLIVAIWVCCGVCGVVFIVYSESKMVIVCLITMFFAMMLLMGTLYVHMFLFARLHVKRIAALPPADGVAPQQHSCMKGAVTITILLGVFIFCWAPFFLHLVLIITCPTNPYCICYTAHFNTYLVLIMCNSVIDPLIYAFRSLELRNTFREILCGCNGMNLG

`CCOC(=O)[C@H](CCc1ccccc1)N[C@@H](C)C(=O)N1[C@H](C(=O)O)C[C@@H]2CCC[C@@H]21`: the AC50 in [1] is over 10 µM; in [2], over 30 µM; in test [3] it was over 10 µM; in test [4] it was over 10 µM; in test [5], over 30 µM; in test [6], over 30 µM. In addition, the AC50 was over 10 µM in test [7]; over 10 µM on Vasopressin V1a receptor; over 10 µM on D(3) dopamine receptor; over 30 µM at Adenosine receptor A2a; over 30 µM on Melanocortin receptor 3; over 10 µM in test [8]. The AC50 in test [9] was over 30 µM; at Bile salt export pump it was over 300 µM; in test [10], over 10 µM.
In the case of `Nc1nc(NC2CC2)c2ncn([C@H]3C=C[C@@H](CO)C3)c2n1` [ABACAVIR], the AC50 in [1], in test [2], in test [3], in test [4], in test [5] and in test [6] was over 30 µM each time. For the same compound, the AC50 (in [7]; on Vasopressin V1a receptor; on D(3) dopamine receptor; at Adenosine receptor A2a; at Melanocortin receptor 3; in test [8]) was over 30 µM throughout. Further, the AC50 in test [9] is over 30 µM; at Bile salt export pump, over 300 µM; in test [10], over 30 µM.
As for `CC(=O)Nc1ccc(O)cc1` [ACETAMINOPHEN], the AC50 in [1], in [2], in [3], in test [4], in [5] and in [6] was over 30 µM throughout. In addition, the AC50 (in test [7]; on Vasopressin V1a receptor; on D(3) dopamine receptor; at Adenosine receptor A2a; on Melanocortin receptor 3; in test [8]) was over 30 µM each time. Besides, the AC50 in test [9] was over 30 µM; at Bile salt export pump, over 300 µM; in test [10], over 30 µM.
As to `COc1cc2nc(N(C)CCCNC(=O)C3CCCO3)nc(N)c2cc1OC` (stereo not given) [ALFUZOSIN], the AC50 in test [1], in [2], in test [3], in [4], in [5] and in test [6] was over 30 µM in each case. Moreover, the AC50 in test [7] is over 30 µM; on Vasopressin V1a receptor, over 30 µM; on D(3) dopamine receptor, 15 µM; at Adenosine receptor A2a, over 30 µM; on Melanocortin receptor 3 it was over 30 µM; in test [8], over 30 µM. Further, the values for the half-maximal activity concentration (AC50) (in test [9]; on Bile salt export pump; in test [10]) were over 30 µM, over 300 µM and 0.81 µM, respectively.
As for `CNC(=O)c1ccccc1Sc1ccc2c(/C=C/c3ccccn3)n[nH]c2c1` [AXITINIB], the AC50 in [1], in [2], in [3], in test [4], in [5] and in [6] was over 30 µM each time. For the same compound, the AC50 in [7] was over 30 µM; on Vasopressin V1a receptor, over 30 µM; on D(3) dopamine receptor, over 30 µM; at Adenosine receptor A2a, over 30 µM; at Melanocortin receptor 3, over 30 µM; in test [8], 0.07 µM. Also, the AC50 is over 30 µM in test [9], 5.4 µM at Bile salt export pump and over 30 µM in test [10].
`CC[C@H]1OC(=O)[C@H](C)[C@@H](O[C@H]2C[C@@](C)(OC)[C@@H](O)[C@H](C)O2)[C@H](C)[C@@H](O[C@@H]2O[C@H](C)C[C@H](N(C)C)[C@H]2O)[C@](C)(O)C[C@@H](C)CN(C)[C@H](C)[C@@H](O)[C@]1(C)O` [AZITHROMYCIN]: the AC50 was over 10 µM in test [1]; over 30 µM in test [2]; over 10 µM in [3]; over 10 µM in [4]; over 30 µM in test [5]; over 30 µM in test [6]. Also, the concentration at half-maximal activity (AC50) in [7] was over 10 µM; at Vasopressin V1a receptor, over 10 µM; on D(3) dopamine receptor, over 10 µM; on Adenosine receptor A2a, over 30 µM; at Melanocortin receptor 3 it was over 30 µM; in test [8], over 10 µM. The results for the AC50 (in test [9]; on Bile salt export pump; in test [10]) were over 30 µM, 200 µM and over 10 µM, respectively.
With `NCC(CC(=O)O)c1ccc(Cl)cc1` (stereo not given) [BACLOFEN], the AC50 in test [1], in test [2], in [3], in test [4], in test [5] and in [6] was over 30 µM each time. The AC50 (in [7]; at Vasopressin V1a receptor; at D(3) dopamine receptor; on Adenosine receptor A2a; at Melanocortin receptor 3; in test [8]) was over 30 µM throughout. The AC50 in [9] was over 30 µM; at Bile salt export pump, over 300 µM; in [10], over 30 µM.
`Cc1ccc(-c2cc(C(F)(F)F)nn2-c2ccc(S(N)(=O)=O)cc2)cc1` [CELECOXIB]: the AC50 was over 10 µM in [1]; over 10 µM in [2]; over 10 µM in [3]; over 10 µM in test [4]; 24.4 µM in test [5]; over 30 µM in [6]. The concentration at half-maximal activity (AC50) was over 10 µM in [7]; over 30 µM at Vasopressin V1a receptor; over 30 µM at D(3) dopamine receptor; over 10 µM at Adenosine receptor A2a; over 10 µM at Melanocortin receptor 3; 5.86 µM in [8]. Besides, the results for the AC50 (in test [9]; at Bile salt export pump; in [10]) were over 10 µM, 34 µM and over 10 µM, respectively.
